What was measured:
[1] = refractive index (Na D-line) (dimensionless); conditions: 101.33 kPa, Liquid
[2] = 101.33 kPa, Liquid; for viscosity: Falling or rolling sphere viscometry

CCCCn1cc[n+](C)c1.[O-][Cl+3]([O-])([O-])[O-] [1-butyl-3-methylimidazolium perchlorate]
Conditions | refractive index, [1] | viscosity, [2] [mPa·s]
283.15 K | 1.4763 | 466.36
288.15 K | 1.4751 | 330.8
293.15 K | 1.474 | 241.56
298.15 K | 1.4725 | 180.26
303.15 K | 1.4712 | 137.85
308.15 K | 1.4696 | 107.28
313.15 K | 1.4685 | 85.75
318.15 K | 1.4667 | 69.52
323.15 K | 1.4655 | 57.22
328.15 K | 1.4642 | 47.78
333.15 K | 1.4627 | 39.9
338.15 K | 1.4615 | 34.14
343.15 K | 1.4602 | 29.49
348.15 K | 1.459 | 25.74
353.15 K | 1.4577 | 22.64

[2], Vibrating tube method
Conditions | mass density [kg/m3]
283.15 K | 1263.5
288.15 K | 1259.9
293.15 K | 1256.2
298.15 K | 1252.7
303.15 K | 1249.2
308.15 K | 1245.7
313.15 K | 1242.2
318.15 K | 1238.8
323.15 K | 1235.3
328.15 K | 1231.9
333.15 K | 1228.4
338.15 K | 1225
343.15 K | 1221.6
348.15 K | 1218.2
353.15 K | 1214.8

CCCCCCCC[n+]1ccn(C)c1.F[B-](F)(F)F [1-methyl-3-octylimidazolium tetrafluoroborate]
Conditions | mass density, [2] [kg/m3] | refractive index, [1] | viscosity, [2] [mPa·s]
283.15 K | 1124.9 | 1.4363 | 1037
288.15 K | 1121.4 | 1.435 | 718.75
293.15 K | 1117.9 | 1.4336 | 462.9
298.15 K | 1114.4 | 1.4322 | 334.17
303.15 K | 1110.9 | 1.431 | 246.18
308.15 K | 1107.5 | 1.4288 | 191.95
313.15 K | 1104.1 | 1.4271 | 147.92
318.15 K | 1100.7 | 1.426 | 116.38
323.15 K | 1097.3 | 1.425 | 91.95
328.15 K | 1093.9 | 1.4235 | 74.79
333.15 K | 1090.6 | 1.4222 | 60.95
338.15 K | 1087.2 | 1.421 | 50.88
343.15 K | 1083.9 | 1.4195 | 42.06
348.15 K | 1080.5 | 1.418 | 35.78
353.15 K | 1077.2 | 1.4167 | 30.11
358.15 K | 1073.8 | 1.4155 | 25.87
363.15 K | 1070.5 | 1.4142 | 21.57
